Reference: patent publication US20220235343A1, “NOVEL ADP-RIBOSYL CYCLASE AND INHIBITOR THEREOF” (INDUSTRIAL COOPERATION FOUNDATION CHONBUK NATIONAL …, priority 2019, published 2022)

Key:
[1] = tested on: kidney tissue of diabetic renal disease mouse model; test: Histopathological change in kidney tissue of renal disease mouse model (H&E staining); assay type: in vivo; details: STZ mice, DCQA i.p. every day for 6 weeks, FIG. 9
Protocol: The histopathological change in the kidney tissue of a renal disease mouse model was measured by the method reported by Shu B et al. [Shu B, Feng Y, Gui Y, Lu Q, Wei W, Xue X, Sun X, He W, Yang J, Dai C. Cell. Signal. 42:249-258, 2018]
Specifically, 0.2 mL of 50 mM citrate buffer (pH 4.8) (control group and DCQA group) or 200 μL of 5 mg/mL streptozotocin (STZ, Sigma-Aldrich (USA)) dissolved in 50 mM citrate buffer (STZ group and STZ+DCQA group) was intraperitoneally injected to C57BL/6J mice. Blood glucose was measured from day 2 after the STZ injection and the mice whose blood glucose level was 300 mg/dL were divided into an STZ group and an STZ+DCQA group. […] In order to investigate the possibility as a therapeutic agent for a renal disease, the mouse was sacrificed and serum and kidney were taken. Some of the extracted kidney was fixed in 10% formalin. The kidney tissue fixed in 10% formalin was cut into kidney tissue sections on a slide glass using a cryostat microtome. The kidney tissue sections were washed with running water for 5 minutes and then stained with hematoxylin for 5 minutes. After the staining, the tissue was washed with running water for 5 minutes. Then, the tissue was immersed in 157 mM hydrochloric acid 2 times and taken out quickly. Then, the tissue was immersed once in 0.25% ammonia water and taken out quickly. After washing again with running water for 5 minutes and staining with eosin for about 30 seconds, the tissue was reacted with 70% ethanol for 30 seconds, with 80% ethanol for 30 seconds, with 90% ethanol for 30 seconds, with 100% ethanol for 30 seconds, again with 100% ethanol for 30 seconds, and then again with 100% ethanol for 30 seconds. Finally, after reacting with xylene for 5 minutes and again with xylene for 5 minutes or longer, a cover glass was attached using a mounting solution.

[2] = tested on: TGF-β1, fibronectin and collagen IV in kidney tissue; test: Expression of TGF-β1, fibronectin and collagen IV in kidney tissue of renal disease mouse model (immunofluorescence); assay type: in vivo; details: STZ mice, DCQA i.p. every day for 6 weeks, FIG. 8
Protocol: The change in the expression of TGF-β1, fibronectin and collagen IV in the kidney tissue of a renal disease mouse model was measured by the method reported by Kim S Y et al. [Kim S Y, Park K H, Gul R, Jang K Y, Kim U H. Am. J. Physiol. Renal Physiol. 296: F291-F297, 2009].
Specifically, 0.2 mL of 50 mM citrate buffer (pH 4.8) (control group and DCQA group) or 200 μL of 5 mg/mL streptozotocin (STZ, Sigma-Aldrich (USA)) dissolved in 50 mM citrate buffer (STZ group and STZ+DCQA group) was intraperitoneally injected to C57BL/6J mice. Blood glucose was measured from day 2 after the STZ injection and the mice whose blood glucose level was 300 mg/dL were divided into an STZ group and an STZ+DCQA group. […] In order to investigate the possibility as a therapeutic agent for a renal disease, the mouse was sacrificed and serum and kidney were taken. Some of the extracted kidney was fixed in 10% formalin. The kidney tissue fixed in 10% formalin was cut into kidney tissue sections on a slide glass using a cryostat microtome. The kidney tissue sections were washed with a TTBS (Tris-buffered saline (TBS) with 0.1% Tween 20) buffer and then incubated with a TTBS buffer containing 1% bovine serum albumin (BSA) for 1 hour. The tissues were reacted with primary antibodies (TGF-β1 (Santa Cruz, USA), fibronectin (Santa Cruz, USA) and collagen IV (Abcam, UK)) diluted in a TTBS buffer containing 1% bovine serum albumin (BSA) to 1:200 at 4° C. for 12 hours or longer. After washing the tissues that reacted with the primary antibodies 3 times with a TTBS buffer, they were reacted with FITC-labeled secondary antibodies diluted in a TTBS buffer to 1:200 in the dark at room temperature for 1 hour. Then, after washing 3 times with a TTBS buffer, a cover glass was attached using a mounting solution. The stained kidney tissue was observed using a fluorescence microscope (Carl Zeiss, Germany) for observing green fluorescence.

[3] = biological target: T1, new ADP-ribosyl cyclase (ADPRC) of SEQ ID NO 1 (Mus musculus, UniProt P14094); test: Inhibition of NAD glycohydrolase (NADase) activity of new ADPRC; assay type: biochemical; details: as compared to the control group; ε-NAD substrate, 37° C. 1 hour; inhibitor concentration not given; FIG. 5
T1 construct: FLAG (N); made in house; host or cells: HEK293 cells or MES13 cells (transient transfection)
Protocol: In order to investigate the ADP-ribosyl cyclase (ADPRC) activity of SEQ ID NO 1, a FLAG-ADPRC plasmid was prepared by ligating a cDNA sequence encoding ADPRC into a FLAG-CMV-2 vector and the overexpression of new ADPRC was induced by treating HEK293 cells or MES13 cells using a transfection reagent. The overexpressed new ADPRC was lysed with a lysis buffer. 45 μL of the lysed sample was treated with 5 μL of 2 mM ε-NAD (nicotinamide 1,N6-ethenoadenine dinucleotide) and incubated at 37° C. for 1 hour. Then, the enzyme-substrate reaction was stopped by treating with 50 μL of 10% trichloroacetic acid. After centrifuging for 10 minutes and adding 80 μL of the supernatant to 720 μL of 0.1 M sodium phosphate buffer, absorbance was measured at 297 nm (excitation) and 410 nm (emission) with a fluorescence spectrometer.
In order to find an inhibitor which inhibits the activation of new ADP-ribosyl cyclase (ADPRC) of SEQ ID NO 1, 5 μL of each of 4,4′-dihydroxyazobenzene (4-DHAB, TCI (Japan)), 2,2′-dihydroxyazobenzene (2-DAB, Sigma-Aldrich (USA)), 2-(3,4-dihydroxyphenyl)-3,5,7-trihydroxychromen-4-one (Quercetin, Sigma-Aldrich (USA)) and San4825 (synthesized by Kannt A et al. [Kannt A, Sicka K, Kroll K, Kadereit D, Gogelein H. Naunyn. Schmiedebergs. Arch. Pharmacol. 385: 717-727, 2012], China) and 2-(1,3-benzoxazol-2-ylamino)-1-methylquinazoline-4(1H)-one (2-BMQ) and 1,4-dicaffeoylquinic acid (1,4-DCQA, Biopurify (China), hereinafter DCQA), which were newly found through screening, was reacted with 40 μL of new ADPRC in iced water for 15 minutes. Then, reaction was conducted at 37° C. for 1 hour after treating with 5 μL of 2 mM ε-NAD (nicotinamide 1,N6-ethenoadenine dinucleotide). Then, the enzyme-substrate reaction was stopped by treating with 50 μL of 10% trichloroacetic acid. After centrifuging for 10 minutes and adding 80 μL of the supernatant to 720 μL of 0.1 M sodium phosphate buffer, absorbance was measured at 297 nm (excitation) and 410 nm (emission) using a fluorescence spectrometer.

- NAD glycohydrolase (NADase) activity inhibited [3]: 79.64%
SMILES: O=C(/C=C/c1ccc(O)c(O)c1)OC1[C@H](O)CC(OC(=O)/C=C/c2ccc(O)c(O)c2)(C(=O)O)C[C@H]1O (stereo partly shown) [DCQA, 1,4-dicaffeoylquinic acid]
- formation of transitional epithelial cells increased by STZ, recovered by DCQA [1]: to a level similar to that of the control group
- glomerulus hypertrophy increased by STZ, recovered by DCQA [1]: to a level similar to that of the control group
- infiltration of inflammatory cells increased by STZ, recovered by DCQA [1]: to a level similar to that of the control group
- expression level of TGF-β1 increased by STZ, decreased by DCQA [2]: to the level of the control group
- expression level of collagen IV increased by STZ, decreased by DCQA [2]: to the level of the control group
- expression level of fibronectin increased by STZ, decreased by DCQA [2]: to the level of the control group
